What was measured:
Assay type in all cases: in vivo, Caenorhabditis elegans
[1] = system: C. elegans complex II mutant RP2699; assay: Scoring of developmental rates, L1 exposed 5 days
Excerpt: (§1) Dead or mostly immobile worms, arrested at the L1 stage, received a score of 1. Populations with severely delayed development were scored as 2. More developmentally advanced, but still obviously delayed worms were given the score of 3. Adult worms that produce a noticeably lower number of progeny received a score of 4. Healthy worms that reproduce normally (i.e., hundreds of eggs and larvae are present) were scored as 5 (see Figure C for representative images). In a typical, correctly prepared experiment, vehicle-treated populations should receive a score of 5, while worms treated with ivermectin (positive control) should receive a score of 1. […]

[2] = system: C. elegans complex II mutant RP2702; assay: Scoring of developmental rates, L1 exposed 5 days
Excerpt: as §1

[3] = system: C. elegans complex II mutant RP2700; assay: Scoring of developmental rates, L1 exposed 5 days
Excerpt: as §1

[4] = system: mitochondrial membrane potential of C. elegans young adults; assay: Mitochondrial membrane potential measurement; details: 100 μM; 24 h
Method: After 24 h, the compounds were washed away. Then, the mitochondrial membrane potential was measured using a specialized fluorescent dye (kit MAK147, Sigma-Aldrich). The kit was used according to the manufacturer’s instructions with modified incubation temperature and time (20 °C, 4 h) to account for the fact that living intact worms were used instead of cell cultures. , Dyed worms (approximately 200 per well) were distributed onto a black 96-well plate, and the fluorescence was measured using a Tecan Infinite 200 Pro plate reader.
Determining the mechanism of action of compounds is always challenging; however, the nature of their effect, as well as the structural similarity to compounds with known properties, can provide useful insights. One of our hypotheses was that the compounds might interfere with energy production. We based this assumption on the behavior of compound-treated worms (delayed development, lower fecundity, and relatively rapid decrease in motility rates but not necessarily death). Impaired mitochondrial function would be accompanied by a decrease in mitochondrial membrane potential (MMP).

[5] = system: C. elegans wild-type and MCII mutants; assay: Recovery of pretreated worms on WMicrotracker ONE; details: 5 or 10 μM for 72 h, then wash-out and recovery
Method: (§2) Briefly, for evaluation of the acute effect of the compounds, age-synchronized young adults of each strain, kept in S complete medium supplemented with E. coli OP50 (3 mg/mL, fresh weight), were transferred onto microtiter plates (96-well, U bottom), and their initial motility was measured for 30 min. […] Afterward, the compounds were washed away, and worms, supplemented with fresh liquid media and food, were distributed onto 96-well plates and allowed to recover. Their activity was measured using WMicrotracker ONE at the indicated time points.
C. elegans L1 larvae were exposed to 5 or 10 μM of the compounds for 72 h, after which the compounds were washed away, and the recovery of the nematodes was evaluated using WMicrotracker.

C. elegans wild-type N2 = assay: Acute motility of young adults on WMicrotracker ONE; details: 50 μM; 24 h
Method: as §2, with “The effect of compounds on C. elegans N2 and SDH mutant strains was measured in a similar manner. Briefly,” for “Briefly,”
(§3) To experimentally support this promising initial finding, we tested the effect of i-19 against several C. elegans MCII mutant strains. These nematodes carry point mutations that result in amino acid changes in regions of subunits SDHC and SDHD that contribute to the formation of the ubiquinone-binding pocket, thereby influencing its shape and the ability of inhibitors to interact with the protein. […] The compounds were tested in multiple setups. At first, young adults were exposed to higher doses (100, 50, and 10 μM) of the compounds for up to 48 h, and changes in motility were evaluated using WMicrotracker. For both compounds, we observed a less pronounced decrease in movement rates of MCII mutants compared to wild-type worms, in both a dose- and time-dependent manner (Figure ).

[6] = system: C. elegans MCII mutant RP2700; assay: as above; details: 50 μM; 24 h
Method: as §2, with “The effect of compounds on C. elegans N2 and SDH mutant strains was measured in a similar manner. Briefly,” for “Briefly,”
as §3

[7] = system: C. elegans MCII mutant RP2699; assay: as above; details: 50 μM; 24 h
Method: as §2, with “The effect of compounds on C. elegans N2 and SDH mutant strains was measured in a similar manner. Briefly,” for “Briefly,”
as §3

[8] = system: C. elegans MCII mutant RP2702; assay: as above; details: 50 μM; 24 h
Method: as §2, with “The effect of compounds on C. elegans N2 and SDH mutant strains was measured in a similar manner. Briefly,” for “Briefly,”
as §3

C. elegans N2 = assay: Scoring of developmental rates, L1 exposed 5 days; set-up: key: 1 = dead/arrested at L1 … 5 = healthy, normal reproduction
Excerpt: as §1

Question: Which “mean score (1-5)” value ([1]; 1.336 µM) does the source give for `Clc1ccc(-c2ccc3[nH]ccc3c2)cc1` [i-19] here?
Answer: 4.667

Question: What about the “mean score (1-5)” value ([1]; 1.782 µM) of the same molecule?
Answer: 4.667

Question: What about the “mean score (1-5)” value ([1]; 2.376 µM) of the same molecule?
Answer: 4.556

Question: And the “mean score (1-5)” value ([1]; 3.168 µM)?
Answer: 4.444

Question: What about the “mean score (1-5)” value ([1]; 4.224 µM) of the same molecule?
Answer: 4.556

Question: And the “mean score (1-5)” value ([1]; 5.631 µM)?
Answer: 4.333

Question: And the “mean score (1-5)” value ([1]; 7.509 µM)?
Answer: 4.444

Question: What about the “mean score (1-5)” value ([1]; 10.011 µM) of the same molecule?
Answer: 4.333

Question: And the “mean score (1-5)” value ([1]; 13.348 µM)?
Answer: 4.111

Question: What about the “mean score (1-5)” value ([1]; 17.798 µM) of the same molecule?
Answer: 3.111

Question: And the “mean score (1-5)” value ([1]; 23.731 µM)?
Answer: 2.778

Question: What about the “mean score (1-5)” value ([1]; 31.641 µM) of the same molecule?
Answer: 2.111

Question: What about the “mean score (1-5)” value ([1]; 42.188 µM) of the same molecule?
Answer: 1

Question: What about the “mean score (1-5)” value ([1]; 56.25 µM) of the same molecule?
Answer: 1

Question: What about the “mean score (1-5)” value ([1]; 75 µM) of the same molecule?
Answer: 1

Question: What about the “mean score (1-5)” value ([1]; 100 µM) of the same molecule?
Answer: 1

Question: What about the “mean score (1-5)” value ([2]; 1.336 µM) of the same molecule?
Answer: 5

Question: What about the “mean score (1-5)” value ([2]; 1.782 µM) of the same molecule?
Answer: 5

Question: What about the “mean score (1-5)” value ([2]; 2.376 µM) of the same molecule?
Answer: 5

Question: And the “mean score (1-5)” value ([2]; 3.168 µM)?
Answer: 5

Question: And the “mean score (1-5)” value ([2]; 4.224 µM)?
Answer: 4.889

Question: And the “mean score (1-5)” value ([2]; 5.631 µM)?
Answer: 4.889

Question: And the “mean score (1-5)” value ([2]; 7.509 µM)?
Answer: 5

Question: And the “mean score (1-5)” value ([2]; 10.011 µM)?
Answer: 4.444

Question: What about the “mean score (1-5)” value ([2]; 13.348 µM) of the same molecule?
Answer: 4.889

Question: What about the “mean score (1-5)” value ([2]; 17.798 µM) of the same molecule?
Answer: 4.667

Question: What about the “mean score (1-5)” value ([2]; 23.731 µM) of the same molecule?
Answer: 3.889

Question: What about the “mean score (1-5)” value ([2]; 31.641 µM) of the same molecule?
Answer: 1.111

Question: And the “mean score (1-5)” value ([2]; 42.188 µM)?
Answer: 1

Question: And the “mean score (1-5)” value ([2]; 56.25 µM)?
Answer: 1

Question: What about the “mean score (1-5)” value ([2]; 75 µM) of the same molecule?
Answer: 1

Question: What about the “mean score (1-5)” value ([2]; 100 µM) of the same molecule?
Answer: 1

Question: What about the “mean score (1-5)” value ([3]; 1.336 µM) of the same molecule?
Answer: 4.778

Question: And the “mean score (1-5)” value ([3]; 1.782 µM)?
Answer: 4.778

Question: And the “mean score (1-5)” value ([3]; 2.376 µM)?
Answer: 4.667

Question: And the “mean score (1-5)” value ([3]; 3.168 µM)?
Answer: 4.889

Question: What about the “mean score (1-5)” value ([3]; 4.224 µM) of the same molecule?
Answer: 4.778

Question: What about the “mean score (1-5)” value ([3]; 5.631 µM) of the same molecule?
Answer: 4.778

Question: What about the “mean score (1-5)” value ([3]; 7.509 µM) of the same molecule?
Answer: 4.667

Question: What about the “mean score (1-5)” value ([3]; 10.011 µM) of the same molecule?
Answer: 4.667

Question: And the “mean score (1-5)” value ([3]; 13.348 µM)?
Answer: 4.333

Question: What about the “mean score (1-5)” value ([3]; 17.798 µM) of the same molecule?
Answer: 3.667

Question: What about the “mean score (1-5)” value ([3]; 23.731 µM) of the same molecule?
Answer: 3.444

Question: What about the “mean score (1-5)” value ([3]; 31.641 µM) of the same molecule?
Answer: 1.111

Question: What about the “mean score (1-5)” value ([3]; 42.188 µM) of the same molecule?
Answer: 1

Question: What about the “mean score (1-5)” value ([3]; 56.25 µM) of the same molecule?
Answer: 1

Question: What about the “mean score (1-5)” value ([3]; 75 µM) of the same molecule?
Answer: 1

Question: What about the “mean score (1-5)” value ([3]; 100 µM) of the same molecule?
Answer: 1

Question: What about the “MMP signal lower than in vehicle-treated control animals” value [4] of the same molecule?
Answer: approximately 80%

Question: What about the “resistance of MCII mutants compared to wild-type” value [5] of the same molecule?
Answer: increased resistance of the MCII mutants

Question: And the “decrease of mean activity counts” value (C. elegans wild-type N2)?
Answer: 89%

Question: What about the “decrease of mean activity counts” value [6] of the same molecule?
Answer: 32%

Question: What about the “decrease of mean activity counts” value [7] of the same molecule?
Answer: 46%

Question: What about the “decrease of mean activity counts” value [8] of the same molecule?
Answer: 70%

Question: What about the “mean score (1-5)” value (C. elegans N2; 1.336 µM) of the same molecule?
Answer: 5

Question: And the “mean score (1-5)” value (C. elegans N2; 1.782 µM)?
Answer: 4.222

Question: And the “mean score (1-5)” value (C. elegans N2; 2.376 µM)?
Answer: 4.889

Question: And the “mean score (1-5)” value (C. elegans N2; 3.168 µM)?
Answer: 4.889

Question: And the “mean score (1-5)” value (C. elegans N2; 4.224 µM)?
Answer: 4.667

Question: And the “mean score (1-5)” value (C. elegans N2; 5.631 µM)?
Answer: 4.444

Question: What about the “mean score (1-5)” value (C. elegans N2; 7.509 µM) of the same molecule?
Answer: 4.667

Question: And the “mean score (1-5)” value (C. elegans N2; 10.011 µM)?
Answer: 4.444

Question: And the “mean score (1-5)” value (C. elegans N2; 13.348 µM)?
Answer: 4

Question: And the “mean score (1-5)” value (C. elegans N2; 17.798 µM)?
Answer: 2.556

Question: What about the “mean score (1-5)” value (C. elegans N2; 23.731 µM) of the same molecule?
Answer: 1.333

Question: What about the “mean score (1-5)” value (C. elegans N2; 31.641 µM) of the same molecule?
Answer: 1

Question: And the “mean score (1-5)” value (C. elegans N2; 42.188 µM)?
Answer: 1

Question: And the “mean score (1-5)” value (C. elegans N2; 56.25 µM)?
Answer: 1

Question: And the “mean score (1-5)” value (C. elegans N2; 75 µM)?
Answer: 1

Question: What about the “mean score (1-5)” value (C. elegans N2; 100 µM) of the same molecule?
Answer: 1

— PMC12766724, “Synthesis, Anthelmintic Activity, and Mechanism of Action of 5‑Aryl‑1H‑indoles” (Journal of Agricultural and Food Chemistry, 2025)
